Laboratory results reported in patent publication US20230064990A1, “DOSING REGIMENS AND METHODS FOR TREATING CANCER” (Panbela Therapeutics, Inc., priority 2020, published 2023).

Key:
[1] = Phase 1a/1b study in combination with G and A, safety; format: in vivo, human
Method: G (1000 mg/m^2) and A (125 mg/m^2) were administered intravenously on Days 1, 8, and 15 of each cycle. […] PK was evaluated on day 1 of cycle 1. Efficacy was assessed by CA19-9 levels, objective response was assessed by RECIST criteria, progression-free survival (PFS) and overall survival (OS).
This is a multicenter, open label, Phase 1a/1b study to evaluate to evaluate the safety, tolerability, pharmacokinetics and efficacy of (S,S)-(HO)2DEHSPM when administered in combination with G and A as first-line therapy in pancreatic cancer patients previously untreated for metastatic disease. The objective was to determine a recommended Phase 2 dose. Using a modified 3+3 dose escalation scheme, cohorts of subjects were dosed with subcutaneous injections of (S,S)-(HO)2DEHSPM at 0.2, 0.4 or 0.6 mg/kg days 1-5 of each 28-day cycle. Gemcitabine (1000 mg/m^2) and A (125 mg/m^2) were administered intravenously on Days 1, 8, and 15 of each cycle. […] PK was evaluated on day 1 of cycle 1. Efficacy was assessed by objective response rate (ORR) using RECIST criteria and by changes in CA19-9 levels. Subjects were treated until disease progression or the development of dose-limiting toxicity. Based upon initial safety findings and preliminary signals of efficacy, the protocol was amended to evaluate progression-free survival (PFS) and overall survival (OS) and expand the study to up to 36 subjects at the recommended Phase 2 dose. To date, 20 subjects were enrolled in cohorts 1-3 and evaluated for dose limiting toxicity and early signals of efficacy.

[2] = tested on: locally advanced or metastatic PDA; experiment: Phase 1 monotherapy dose escalation study, efficacy (RECIST, overall survival); format: in vivo, human
Method: Efficacy was assessed by RECIST criteria and overall survival.

[3] = N=20, (S,S)-(HO)2DEHSPM with G + A
[4] = N=20, in combination with G + A

CCNCCC(O)CNCCCCNCC(O)CCNCC [(S,S)-(HO)2DEHSPM, (6S,15S)-3,8,13,18-teraazaicosane-6,15-diol]
Grade ≥3 Anemia related to the named study medication (subjects) ([1]; N=20): 0
Grade ≥3 Dehydration related to the named study medication (subjects) ([1]; N=20): 0
Grade ≥3 Delirium related to the named study medication (subjects) ([1]; N=20): 0
Grade ≥3 Dyspnea related to the named study medication (subjects) ([1]; N=20): 0
Grade ≥3 Elevated LFTs related to the named study medication (subjects) ([1]; N=20): 4
Grade ≥3 Elevated Lipase related to the named study medication (subjects) ([1]; N=20): 1
Grade ≥3 Fatigue related to the named study medication (subjects) ([1]; N=20): 0
Grade ≥3 Hiccups (Intractable) related to the named study medication (subjects) ([1]; N=20): 0
Grade ≥3 Hyponatremia related to the named study medication (subjects) ([1]; N=20): 0
Grade ≥3 Neutropenia related to the named study medication (subjects) ([1]; N=20): 0
Grade ≥3 Thrombocytopenia related to the named study medication (subjects) ([1]; N=20): 0
Grade ≥3 Anemia related to any study medication, Total (%) [1, 3]: (15%)
Grade ≥3 Anemia related to any study medication, Total N [1, 3]: 3
Grade ≥3 Dehydration related to any study medication, Total (%) [1, 3]: (5%)
Grade ≥3 Dehydration related to any study medication, Total N [1, 3]: 1
Grade ≥3 Delirium related to any study medication, Total (%) [1, 3]: (5%)
Grade ≥3 Delirium related to any study medication, Total N [1, 3]: 1
Grade ≥3 Dyspnea related to any study medication, Total (%) [1, 3]: (5%)
Grade ≥3 Dyspnea related to any study medication, Total N [1, 3]: 1
Grade ≥3 Elevated LFTs related to any study medication, Total (%) [1, 3]: (20%)
Grade ≥3 Elevated LFTs related to any study medication, Total N [1, 3]: 4
Grade ≥3 Elevated Lipase related to any study medication, Total (%) [1, 3]: (5%)
Grade ≥3 Elevated Lipase related to any study medication, Total N [1, 3]: 1
Grade ≥3 Fatigue related to any study medication, Total (%) [1, 3]: (5%)
Grade ≥3 Fatigue related to any study medication, Total N [1, 3]: 1
Grade ≥3 Hiccups (Intractable) related to any study medication, Total (%) [1, 3]: (5%)
Grade ≥3 Hiccups (Intractable) related to any study medication, Total N [1, 3]: 1
Grade ≥3 Hyponatremia related to any study medication, Total (%) [1, 3]: (5%)
Grade ≥3 Hyponatremia related to any study medication, Total N [1, 3]: 1
Grade ≥3 Neutropenia related to any study medication, Total (%) [1, 3]: (30%)
Grade ≥3 Neutropenia related to any study medication, Total N [1, 3]: 6
Grade ≥3 Thrombocytopenia related to any study medication, Total (%) [1, 3]: (5%)
Grade ≥3 Thrombocytopenia related to any study medication, Total N [1, 3]: 1
Grade ≥ 3 Anemia, % [1, 4]: 15%
Grade ≥ 3 Diarrhea, % [1, 4]: 0%
Grade ≥ 3 Fatigue, % [1, 4]: 5%
Grade ≥ 3 Leukopenia (G3-4), % [1, 4]: 15%
Grade ≥ 3 Neutropenia (G3-4), % [1, 4]: 30%
Grade ≥ 3 Peripheral Neuropathy, % [1, 4]: 0%
Grade ≥ 3 Thrombocytopenia, % [1, 4]: 5%
Diarrhea, Grade 1 (related AE, subjects) ([1]; N=20, with G+A): 1
Diarrhea, Grade 2 (related AE, subjects) ([1]; N=20, with G+A): 1
Diarrhea, Grade 3 (related AE, subjects) ([1]; N=20, with G+A): 0
Diarrhea, Grade 4 (related AE, subjects) ([1]; N=20, with G+A): 0
Diarrhea, Grade 5 (related AE, subjects) ([1]; N=20, with G+A): 0
Diarrhea, Total (%) (related AE) ([1]; N=20, with G+A): 10%
Diarrhea, Total N (related AE) ([1]; N=20, with G+A): 2
Elevated Liver Function Tests (LFTs), Grade 1 (related AE, subjects) ([1]; N=20, with G+A): 0
Elevated Liver Function Tests (LFTs), Grade 2 (related AE, subjects) ([1]; N=20, with G+A): 0
Elevated Liver Function Tests (LFTs), Grade 3 (related AE, subjects) ([1]; N=20, with G+A): 3
Elevated Liver Function Tests (LFTs), Grade 4 (related AE, subjects) ([1]; N=20, with G+A): 1
Elevated Liver Function Tests (LFTs), Grade 5 (related AE, subjects) ([1]; N=20, with G+A): 0
Elevated Liver Function Tests (LFTs), Total (%) (related AE) ([1]; N=20, with G+A): 20%
Elevated Liver Function Tests (LFTs), Total N (related AE) ([1]; N=20, with G+A): 4
Fatigue, Grade 1 (related AE, subjects) ([1]; N=20, with G+A): 4
Fatigue, Grade 2 (related AE, subjects) ([1]; N=20, with G+A): 3
Fatigue, Grade 3 (related AE, subjects) ([1]; N=20, with G+A): 1
Fatigue, Grade 4 (related AE, subjects) ([1]; N=20, with G+A): 0
Fatigue, Grade 5 (related AE, subjects) ([1]; N=20, with G+A): 0
Fatigue, Total (%) (related AE) ([1]; N=20, with G+A): 40%
Fatigue, Total N (related AE) ([1]; N=20, with G+A): 8
Injection site pain, Grade 1 (related AE, subjects) ([1]; N=20, with G+A): 4
Injection site pain, Grade 2 (related AE, subjects) ([1]; N=20, with G+A): 0
Injection site pain, Grade 3 (related AE, subjects) ([1]; N=20, with G+A): 0
Injection site pain, Grade 4 (related AE, subjects) ([1]; N=20, with G+A): 0
Injection site pain, Grade 5 (related AE, subjects) ([1]; N=20, with G+A): 0
Injection site pain, Total (%) (related AE) ([1]; N=20, with G+A): 20%
Injection site pain, Total N (related AE) ([1]; N=20, with G+A): 4
Nausea, Grade 1 (related AE, subjects) ([1]; N=20, with G+A): 1
Nausea, Grade 2 (related AE, subjects) ([1]; N=20, with G+A): 1
Nausea, Grade 3 (related AE, subjects) ([1]; N=20, with G+A): 0
Nausea, Grade 4 (related AE, subjects) ([1]; N=20, with G+A): 0
Nausea, Grade 5 (related AE, subjects) ([1]; N=20, with G+A): 0
Nausea, Total (%) (related AE) ([1]; N=20, with G+A): 10%
Nausea, Total N (related AE) ([1]; N=20, with G+A): 2
liver enzyme elevation ([1]; interim, one patient in cohort 2 (0.4 mg/kg), with G and A): grade 3-4 reversible liver enzyme elevation
(S,S)-(HO)2DEHSPM-related bone marrow suppression or peripheral neuropathy ([1]; interim, with G and A): no evidence of (S,S)-(HO)2DEHSPM-related bone marrow suppression or peripheral neuropathy
reversibility of (S,S)-(HO)2DEHSPM-related increases in liver toxicity ([1]; when administration was interrupted and dose-reduced or discontinued): reversed in all but one subject
Stable disease ([2]; cohort 3 (0.2 mg/kg), N=4): 2 patients
Median survival ([2]; cohort 3 (0.2 mg/kg), N=4, heavily pre-treated PDA patients): 5.9 months
Stable disease ([2]; cohort 4 (0.4 mg/kg), N=7): 2 patients
Stable disease ([2]; cohort 5 (0.8 mg/kg), N=10): 4 patients
